Experimental data taken from ChEMBL document CHEMBL3286222, “Synthesis and antiproliferative studies of 5-aryl-2-(3-thienylamino)-1,3,4-thiadiazoles” (Bioorg Med Chem Lett, 2014).

Columns and labels:
[1] = system: SK-MEL-28; assay: Cytotoxicity against human SK-MEL-28 cells assessed as growth inhibition after 72 hrs by MTT colorimetric assay; type: functional, cell-based; settings: SK-MEL-28, 72 h
[2] = system: A549; assay: Cytotoxicity against human A549 cells assessed as growth inhibition after 72 hrs by MTT colorimetric assay; type: functional, cell-based; settings: A549, 72 h
[3] = Cytotoxicity against mouse B16F10 cells assessed as growth inhibition after 72 hrs by MTT colorimetric assay; type: functional, cell-based; settings: B16-F10, 72 h
[4] = Cytotoxicity against human U373 cells assessed as growth inhibition after 72 hrs by MTT colorimetric assay; type: functional, cell-based, U-373MG ATCC; settings: U373 MG
[5] = system: MCF7; assay: Cytotoxicity against human MCF7 cells assessed as growth inhibition after 72 hrs by MTT colorimetric assay; type: functional, cell-based; settings: MCF7, 72 h
[6] = Cytotoxicity against human Hs683 cells assessed as growth inhibition after 72 hrs by MTT colorimetric assay; type: functional, cell-based; settings: Hs 683, 72 h
[7] = Cytotoxicity against human NHLF cells assessed as growth inhibition after 72 hrs by MTT colorimetric assay; type: cell-based
[8] = system: NHDF; assay: Cytotoxicity against human NHDF cells assessed as growth inhibition after 72 hrs by MTT colorimetric assay; type: cell-based
[9] = Cytotoxicity against human Hs683 cells assessed as cell viability at 10 uM after 72 hrs by MTT colorimetric assay; type: functional; settings: Hs 683, 72 h, read-out: Activity
[10] = Cytotoxicity against mouse B16F10 cells assessed as cell viability at 1 uM after 72 hrs by MTT colorimetric assay; type: functional; settings: B16-F10, 72 h, read-out: Activity
[11] = system: A549; assay: Cytotoxicity against human A549 cells assessed as cell viability at 5 uM after 72 hrs by MTT colorimetric assay; type: functional; settings: A549, 72 h, read-out: Activity
[12] = Cytotoxicity against human Hs683 cells assessed as cell viability at 5 uM after 72 hrs by MTT colorimetric assay; type: functional; settings: Hs 683, 72 h, read-out: Activity
[13] = system: A549; assay: Cytotoxicity against human A549 cells assessed as cell viability at 50 uM after 72 hrs by MTT colorimetric assay; type: functional; settings: A549, 72 h, read-out: Activity
[14] = system: MCF7; assay: Cytotoxicity against human MCF7 cells assessed as cell viability at 100 uM after 72 hrs by MTT colorimetric assay; type: functional; settings: MCF7, 72 h, read-out: Activity
[15] = system: A549; assay: Cytotoxicity against human A549 cells assessed as cell viability at 0.5 uM after 72 hrs by MTT colorimetric assay; type: functional; settings: A549, 72 h, read-out: Activity
[16] = Cytotoxicity against human U373 cells assessed as cell viability at 0.5 uM after 72 hrs by MTT colorimetric assay; type: functional, U-373MG ATCC; settings: U373 MG, read-out: Activity
[17] = Cytotoxicity against human Hs683 cells assessed as cell viability at 1 uM after 72 hrs by MTT colorimetric assay; type: functional; settings: Hs 683, 72 h, read-out: Activity
[18] = Cytotoxicity against mouse B16F10 cells assessed as cell viability at 0.5 uM after 72 hrs by MTT colorimetric assay; type: functional; settings: B16-F10, 72 h, read-out: Activity
[19] = system: A549; assay: Cytotoxicity against human A549 cells assessed as cell viability at 100 uM after 72 hrs by MTT colorimetric assay; type: functional; settings: A549, 72 h, read-out: Activity
[20] = system: SK-MEL-28; assay: Cytotoxicity against human SK-MEL-28 cells assessed as cell viability at 0.5 uM after 72 hrs by MTT colorimetric assay; type: functional; settings: SK-MEL-28, 72 h, read-out: Activity
[21] = Cytotoxicity against human Hs683 cells assessed as cell viability at 0.05 uM after 72 hrs by MTT colorimetric assay; type: functional; settings: Hs 683, 72 h, read-out: Activity
[22] = system: MCF7; assay: Cytotoxicity against human MCF7 cells assessed as cell viability at 0.5 uM after 72 hrs by MTT colorimetric assay; type: functional; settings: MCF7, 72 h, read-out: Activity
[23] = Cytotoxicity against human Hs683 cells assessed as cell viability at 0.5 uM after 72 hrs by MTT colorimetric assay; type: functional; settings: Hs 683, 72 h, read-out: Activity
[24] = system: SK-MEL-28; assay: Cytotoxicity against human SK-MEL-28 cells assessed as cell viability at 100 uM after 72 hrs by MTT colorimetric assay; type: functional; settings: SK-MEL-28, 72 h, read-out: Activity
[25] = Cytotoxicity against human Hs683 cells assessed as cell viability at 50 uM after 72 hrs by MTT colorimetric assay; type: functional; settings: Hs 683, 72 h, read-out: Activity
[26] = Cytotoxicity against mouse B16F10 cells assessed as cell viability at 50 uM after 72 hrs by MTT colorimetric assay; type: functional; settings: B16-F10, 72 h, read-out: Activity
[27] = Cytotoxicity against human U373 cells assessed as cell viability at 10 uM after 72 hrs by MTT colorimetric assay; type: functional, U-373MG ATCC; settings: U373 MG, read-out: Activity
[28] = system: A549; assay: Cytotoxicity against human A549 cells assessed as cell viability at 10 uM after 72 hrs by MTT colorimetric assay; type: functional; settings: A549, 72 h, read-out: Activity
[29] = system: MCF7; assay: Cytotoxicity against human MCF7 cells assessed as cell viability at 5 uM after 72 hrs by MTT colorimetric assay; type: functional; settings: MCF7, 72 h, read-out: Activity
[30] = Cytotoxicity against human Hs683 cells assessed as cell viability at 100 uM after 72 hrs by MTT colorimetric assay; type: functional; settings: Hs 683, 72 h, read-out: Activity
[31] = Cytotoxicity against mouse B16F10 cells assessed as cell viability at 5 uM after 72 hrs by MTT colorimetric assay; type: functional; settings: B16-F10, 72 h, read-out: Activity
[32] = system: MCF7; assay: Cytotoxicity against human MCF7 cells assessed as cell viability at 50 uM after 72 hrs by MTT colorimetric assay; type: functional; settings: MCF7, 72 h, read-out: Activity

Row | SMILES | IC50 [1] [µM] | IC50 [2] [µM] | IC50 [3] [µM] | IC50 [4] [µM] | IC50 [5] [µM] | IC50 [6] [µM] | other results
1 | COc1ccc(-c2cc(NC(=S)NNC(=O)c3ccc(C)cc3)cs2)cc1 | 22 | 35 | 7 | > 100 | 40 | 30 | –
2 | Cc1ccc(C(=O)NNC(=S)Nc2csc(-c3ccccc3)c2)cc1 | 40 | 40 | 24 | 62 | 30 | 37 | –
3 | Cc1ccc(C(=O)NNC(=S)Nc2csc(-c3ccc(C)cc3)c2)cc1 | 44 | 37 | 20 | 38 | 29 | 40 | –
4 | COc1cc(C(=O)NNC(=S)Nc2csc(-c3ccccc3)c2)cc(OC)c1OC | 55 | 39 | 32 | 44 | 43 | 42 | –
5 | COc1cc(C(=O)NNC(=S)Nc2csc(-c3ccc(C)cc3)c2)cc(OC)c1OC | 42 | 39 | 13 | 47 | 31 | 42 | –
6 | COc1ccc(C(=O)NNC(=S)Nc2csc(-c3ccccc3)c2)cc1 | 30 | 36 | 33 | 41 | 32 | 35 | –
7 | COc1ccc(C(=O)NNC(=S)Nc2csc(-c3ccc(C)cc3)c2)cc1 | 11 | 11 | 9 | 19 | 5 | 12 | IC50 [7]: 28 µM; IC50 [8]: 22 µM
8 | O=C(NNC(=S)Nc1csc(-c2ccccc2)c1)c1ccc(O)cc1 | 71 | 75 | 40 | > 100 | 78 | 80 | –
9 | Cc1ccc(-c2cc(NC(=S)NNC(=O)c3ccc(O)cc3)cs2)cc1 | 46 | 44 | 48 | 64 | 42 | 49 | –
10 | COc1cc(OC)cc(C(=O)NNC(=S)Nc2csc(-c3ccccc3)c2)c1 | 37 | 39 | 30 | 40 | 38 | 42 | –
11 | COc1cc(OC)cc(C(=O)NNC(=S)Nc2csc(-c3ccc(C)cc3)c2)c1 | 38 | 32 | 13 | 41 | 26 | 37 | –
12 | COc1ccc(C(=O)NNC(=S)Nc2csc(-c3ccccc3)c2)cc1OC | 28 | 20 | 9 | 59 | 21 | 22 | –
13 | COc1ccc(C(=O)NNC(=S)Nc2csc(-c3ccc(C)cc3)c2)cc1OC | 19 | 36 | 7 | 47 | 11 | 39 | –
14 | COc1ccc(-c2cc(Nc3nnc(-c4ccc(C)cc4)s3)cs2)cc1 | > 100 | – | – | > 100 | > 100 | – | viability at 10 µM [9]: < 50%; viability at 1 µM [10]: < 50%; viability at 5 µM [11]: < 50%
15 | Cc1ccc(-c2nnc(Nc3csc(-c4ccccc4)c3)s2)cc1 | > 100 | – | 4 | > 100 | 34 | – | viability at 5 µM [12]: < 50%; viability at 50 µM [13]: < 50%
16 | Cc1ccc(-c2cc(Nc3nnc(-c4ccc(C)cc4)s3)cs2)cc1 | > 100 | – | – | – | – | – | viability at 100 µM [14]: < 50%; viability at 0.5 µM [15]: < 50%; viability at 0.5 µM [16]: < 50%; viability at 1 µM [17]: < 50%; viability at 1 µM [10]: < 50%
17 | COc1cc(-c2nnc(Nc3csc(-c4ccccc4)c3)s2)cc(OC)c1OC | > 100 | – | – | > 100 | > 100 | – | viability at 0.5 µM [18]: < 50%; viability at 100 µM [19]: < 50%; viability at 5 µM [12]: < 50%
18 | COc1cc(-c2nnc(Nc3csc(-c4ccc(C)cc4)c3)s2)cc(OC)c1OC | – | – | 12 | – | – | – | viability at 0.5 µM [20]: < 50%; viability at 0.05 µM [21]: < 50%; viability at 0.5 µM [15]: < 50%; viability at 0.5 µM [16]: < 50%; viability at 0.5 µM [22]: < 50%
19 | COc1ccc(-c2nnc(Nc3csc(-c4ccccc4)c3)s2)cc1 | > 100 | 8 | 6 | 92 | 60 | 5 | –
20 | COc1ccc(-c2nnc(Nc3csc(-c4ccc(C)cc4)c3)s2)cc1 | – | – | – | – | – | – | viability at 0.5 µM [23]: < 50%; viability at 100 µM [24]: < 50%; viability at 0.5 µM [15]: < 50%; viability at 0.5 µM [16]: < 50%; viability at 0.5 µM [22]: < 50%; viability at 1 µM [10]: < 50%
21 | Oc1ccc(-c2nnc(Nc3csc(-c4ccccc4)c3)s2)cc1 | 57 | 15 | 8 | 58 | 24 | 26 | –
22 | Cc1ccc(-c2cc(Nc3nnc(-c4ccc(O)cc4)s3)cs2)cc1 | 14 | 6 | 6 | 8 | 8 | 17 | –
23 | COc1cc(OC)cc(-c2nnc(Nc3csc(-c4ccccc4)c3)s2)c1 | > 100 | – | – | 92 | – | – | viability at 50 µM [25]: < 50%; viability at 100 µM [14]: < 50%; viability at 100 µM [19]: < 50%; viability at 50 µM [26]: < 50%
24 | COc1cc(OC)cc(-c2nnc(Nc3csc(-c4ccc(C)cc4)c3)s2)c1 | > 100 | – | – | – | – | – | viability at 10 µM [27]: < 50%; viability at 10 µM [28]: < 50%; viability at 1 µM [10]: < 50%; viability at 5 µM [29]: < 50%; viability at 5 µM [12]: < 50%
25 | COc1ccc(-c2nnc(Nc3csc(-c4ccccc4)c3)s2)cc1OC | > 100 | > 100 | – | > 100 | 92 | – | viability at 100 µM [30]: < 50%; viability at 0.5 µM [18]: < 50%
26 | COc1ccc(-c2nnc(Nc3csc(-c4ccc(C)cc4)c3)s2)cc1OC | > 100 | – | – | > 100 | – | – | viability at 0.5 µM [15]: < 50%; viability at 5 µM [12]: < 50%; viability at 5 µM [31]: < 50%; viability at 50 µM [32]: < 50%
